PubChem BioAssay AID248 (DTP/NCI, 2004)
Where “and” joins values, the source holds several entries; their conditions need not be identical. Equal values may be shown once. Inconclusive results and toxic doses are left out. Rule as the data show it: active = T/C of 150% or more; inactive = T/C below 125%.

System: L1210 leukemia ip in BDF1 mice, survival T/C
Assay: NCI In Vivo Anticancer Drug Screen. Data for tumor model L1210 Leukemia (intraperitoneal) in B6D2F1 (BDF1) mice
Settings: endpoint: mean survival time, higher = longer survival
Outline: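 Ratio derived from survival: compound-dosed mice over vehicle-dosed mice, all bearing a transplantable tumor.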

[1] = dose: 100.0 mg/kg/injection, schedule: Q01DX001 (ip), vehicle: carboxymethylcellulose (CMC)
[2] = dose: 200.0 mg/kg/injection, schedule: Q01DX001 (ip), vehicle: carboxymethylcellulose (CMC)
[3] = dose: 400.0 mg/kg/injection, schedule: Q01DX001 (ip), vehicle: carboxymethylcellulose (CMC)
[4] = dose: 100.0 mg/kg/injection, schedule: Q01DX009 (ip), vehicle: Klucel (hydroxypropylcellulose) (HPC)
[5] = dose: 200.0 mg/kg/injection, schedule: Q01DX009 (ip), vehicle: Klucel (hydroxypropylcellulose) (HPC)
[6] = dose: 400.0 mg/kg/injection, schedule: Q01DX009 (ip), vehicle: Klucel (hydroxypropylcellulose) (HPC)
[7] = dose: 100.0 mg/kg/injection, schedule: Q01DX001 (ip), vehicle: saline
[8] = dose: 200.0 mg/kg/injection, schedule: Q01DX001 (ip), vehicle: saline
[9] = dose: 100.0 mg/kg/injection, schedule: Q04DX002 (ip), vehicle: saline with Tween-80
[10] = dose: 400.0 mg/kg/injection, schedule: Q01DX001 (ip), vehicle: saline
[11] = dose: 100.0 mg/kg/injection, schedule: Q01DX001 (ip), vehicle: saline with Tween-80
[12] = dose: 200.0 mg/kg/injection, schedule: Q01DX001 (ip), vehicle: saline with Tween-80
[13] = dose: 400.0 mg/kg/injection, schedule: Q01DX001 (ip), vehicle: saline with Tween-80
[14] = dose: 100.0 mg/kg/injection, schedule: Q04DX003 (ip), vehicle: saline with Tween-80
[15] = dose: 200.0 mg/kg/injection, schedule: Q04DX003 (ip), vehicle: saline with Tween-80
[16] = dose: 400.0 mg/kg/injection, schedule: Q04DX003 (ip), vehicle: saline with Tween-80
[17] = dose: 200.0 mg/kg/injection, schedule: Q04DX002 (ip), vehicle: saline with Tween-80
[18] = dose: 100.0 mg/kg/injection, schedule: Q01DX009 (ip), vehicle: saline with Tween-80
[19] = dose: 200.0 mg/kg/injection, schedule: Q01DX009 (ip), vehicle: saline with Tween-80
[20] = dose: 400.0 mg/kg/injection, schedule: Q01DX009 (ip), vehicle: saline with Tween-80

Measured: T/C

CCCCCCCCCC(=O)Nc1ccc(C)cc1C
inactive: dose: 100.0 mg/kg/injection, schedule: Q04DX002 (ip), vehicle: Klucel (hydroxypropylcellulose) (HPC) 97 % of control | dose: 200.0 mg/kg/injection, schedule: Q04DX002 (ip), vehicle: Klucel (hydroxypropylcellulose) (HPC) 101 % of control | dose: 400.0 mg/kg/injection, schedule: Q04DX002 (ip), vehicle: Klucel (hydroxypropylcellulose) (HPC) 90 % of control

CC1([N+](=O)[O-])COP(=O)(Nc2cccc(Br)c2)OC1 (configuration not stated)
inactive: [1] 96 % of control | [2] 94 % of control | [3] 100 % of control

OC1(c2ccccc2)CC2CC1c1ccccc12 (configuration not stated)
inactive: [1] 111 % of control | [2] 93 % of control | [3] 90 % of control

O=C1c2ccccc2C(=O)C2C3C=CC(C3)C12 (configuration not stated)
inactive: dose: 50.0 mg/kg/injection, schedule: Q01DX001 (ip), vehicle: carboxymethylcellulose (CMC) 93 % of control | [1] 100 % of control | [2] 100 % of control | [3] 103 % of control

CC(C)c1ccc(/C=C2\N=C(c3ccc([N+](=O)[O-])cc3)OC2=O)cc1
inactive: [4] 100 % of control | [5] 100 % of control | [6] 98 % of control

CCCCOC(=O)c1[nH]cnc1N
inactive: [7] 114 % of control | [8] 110 % of control

CCc1ccc(C(=O)NN)cc1
inactive: dose: 25.0 mg/kg/injection, schedule: Q01DX009 (ip), vehicle: saline 95 % of control | dose: 50.0 mg/kg/injection, schedule: Q01DX009 (ip), vehicle: saline 105 % of control and 113 % of control | dose: 200.0 mg/kg/injection, schedule: Q01DX009 (ip), vehicle: saline 117 % of control | dose: 400.0 mg/kg/injection, schedule: Q01DX009 (ip), vehicle: saline 123 % of control

O=C(C[n+]1cccc2ccccc21)c1ccc([N+](=O)[O-])cc1
inactive: [9] 109 % of control

CC(NC(=O)C(NC(=O)c1cnc2ccccc2n1)C(C)C)C(=O)O (configuration not stated)
inactive: [7] 94 % of control | dose: 100.0 mg/kg/injection, schedule: Q04DX003 (ip), vehicle: acetone 99 % of control | [8] 104 % of control | dose: 200.0 mg/kg/injection, schedule: Q04DX003 (ip), vehicle: acetone 103 % of control | [10] 96 % of control | dose: 400.0 mg/kg/injection, schedule: Q04DX003 (ip), vehicle: acetone 99 % of control

O=[N+]([O-])c1cccc(CNc2ccccc2)c1
inactive: [11] 98 % of control | [12] 95 % of control | [13] 93 % of control

CCOCCNCC1OC(OC)C2OC(C)(C)OC12 (configuration not stated)
inactive: dose: 100.0 mg/kg/injection, schedule: Q01DX005 (ip), vehicle: saline 103 % of control | dose: 200.0 mg/kg/injection, schedule: Q01DX005 (ip), vehicle: saline 103 % of control

COc1ccc(-c2nnc3n2C(C)(C)N=C(N)N3)cc1
inactive: [14] 94 % of control | [15] 100 % of control | [16] 97 % of control

Cc1cccc(NC(=S)NCCc2ccccn2)c1
inactive: [9] 97 % of control | [17] 97 % of control

Cn1c(=O)cc(C=Nc2ccc(C(=O)O)cc2)c2ccccc21
inactive: [7] 100 % of control | [8] 96 % of control | [10] 100 % of control

COc1ccc(OC)c2c(=O)c(C(=O)O)c[nH]c12
inactive: [7] 102 % of control | [8] 100 % of control | [10] 105 % of control

Nc1cccc2ncc(C=O)n12
inactive: dose: 37.5 mg/kg/injection, schedule: Q01DX001 (ip), vehicle: Klucel (hydroxypropylcellulose) (HPC) 102 % of control | dose: 75.0 mg/kg/injection, schedule: Q01DX001 (ip), vehicle: Klucel (hydroxypropylcellulose) (HPC) 96 % of control | dose: 150.0 mg/kg/injection, schedule: Q01DX001 (ip), vehicle: Klucel (hydroxypropylcellulose) (HPC) 95 % of control

CCC1(CCC#N)CCC(N)=CC1=O (configuration not stated)
inactive: [18] 97 % of control | [19] 106 % of control | [20] 97 % of control

O=C(Nc1ccc(-c2nc3ccccc3[nH]2)cc1)c1ccc(C(=O)Nc2ccc(-c3nc4ccccc4[nH]3)cc2)cc1
inactive: dose: 15.0 mg/kg/injection, schedule: Q01DX Z (ip), vehicle: carboxymethylcellulose (CMC) 97 % of control | dose: 30.0 mg/kg/injection, schedule: Q01DX Z (ip), vehicle: carboxymethylcellulose (CMC) 97 % of control | dose: 60.0 mg/kg/injection, schedule: Q01DX Z (ip), vehicle: carboxymethylcellulose (CMC) 94 % of control | dose: 120.0 mg/kg/injection, schedule: Q01DX Z (ip), vehicle: carboxymethylcellulose (CMC) 100 % of control

OC1CC2CC1C1C3C=CC(C3)C21 (configuration not stated)
inactive: dose: 6.25 mg/kg/injection, schedule: Q01DX009 (ip), vehicle: saline with Tween-80 98 % of control | dose: 12.5 mg/kg/injection, schedule: Q01DX009 (ip), vehicle: saline with Tween-80 101 % of control | dose: 25.0 mg/kg/injection, schedule: Q01DX009 (ip), vehicle: saline with Tween-80 101 % of control

O=C(Oc1ccc(S(=O)(=O)F)cc1Cl)c1ccccc1Cl
inactive: dose: 100.0 mg/kg/injection, schedule: Q04DX003 (ip), vehicle: carboxymethylcellulose (CMC) 98 % of control | dose: 200.0 mg/kg/injection, schedule: Q04DX003 (ip), vehicle: carboxymethylcellulose (CMC) 95 % of control | dose: 400.0 mg/kg/injection, schedule: Q04DX003 (ip), vehicle: carboxymethylcellulose (CMC) 104 % of control

O=C(O)CC[P+](c1ccccc1)(c1ccccc1)c1ccccc1
inactive: [14] 90 % of control | [15] 98 % of control | [16] 93 % of control

CCOc1ccc(NC(=O)Oc2ccc(-c3ccccc3)cc2)cc1
inactive: [11] 93 % of control | [18] 100 % of control and 90 % of control | [9] 104 % of control and 106 % of control | [12] 91 % of control | [19] 87 % of control and 92 % of control | [17] 100 % of control and 101 % of control | [13] 89 % of control | [20] 97 % of control and 87 % of control | dose: 400.0 mg/kg/injection, schedule: Q04DX002 (ip), vehicle: saline with Tween-80 92 % of control

CCN(CC)CCCC(C)Nc1cc(N)nc2nc(-c3ccc(Cl)cc3)cnc12 (configuration not stated)
inactive: dose: 75.0 mg/kg/injection, schedule: Q01DX001 (ip), vehicle: saline 94 % of control | dose: 150.0 mg/kg/injection, schedule: Q01DX001 (ip), vehicle: saline 101 % of control

Cc1ccc(C)c(NC(=O)Nc2ccccc2)c1
inactive: [4] 100 % of control | dose: 100.0 mg/kg/injection, schedule: Q04DX003 (ip), vehicle: Klucel (hydroxypropylcellulose) (HPC) 98 % of control | [5] 94 % of control | dose: 200.0 mg/kg/injection, schedule: Q04DX003 (ip), vehicle: Klucel (hydroxypropylcellulose) (HPC) 96 % of control | [6] 98 % of control | dose: 400.0 mg/kg/injection, schedule: Q04DX003 (ip), vehicle: Klucel (hydroxypropylcellulose) (HPC) 91 % of control

Cc1cccc(Cl)c1NC(=O)Nc1cc(Cl)ccc1O
inactive: [4] 107 % of control | [5] 93 % of control | [6] 100 % of control

CCC(C)(C(=O)NO)c1ccccc1 (configuration not stated)
inactive: [11] 110 % of control | [12] 101 % of control

c1cc[c]([Sn]([c]2ccccc2)([c]2ccccc2)[n]2cnc3cncnc32)cc1
inactive: dose: 5.0 mg/kg/injection, schedule: Q01DX001 (ip), vehicle: other 111 % of control | dose: 10.0 mg/kg/injection, schedule: Q01DX001 (ip), vehicle: other 100 % of control

Cc1cc([N+](=O)[O-])c(Cl)cc1N
inactive: dose: 100.0 mg/kg/injection, schedule: Q04DX003 (ip), vehicle: gum acacia 93 % of control | dose: 200.0 mg/kg/injection, schedule: Q04DX003 (ip), vehicle: gum acacia 95 % of control | dose: 400.0 mg/kg/injection, schedule: Q04DX003 (ip), vehicle: gum acacia 95 % of control

O=C1C(=O)C2CCC1C2
inactive: dose: 25.0 mg/kg/injection, schedule: Q04DX002 (ip), vehicle: other 100 % of control | dose: 50.0 mg/kg/injection, schedule: Q04DX002 (ip), vehicle: other 98 % of control | dose: 100.0 mg/kg/injection, schedule: Q04DX002 (ip), vehicle: other 98 % of control

C=CCNC(=S)Nc1cccc(OC(=O)NC2CCCCC2)c1
inactive: [4] 103 % of control | [5] 105 % of control | [6] 97 % of control
